Patent US9675070B2 (BAYER CROPSCIENCE AG, priority 2013, dated 2017)

How the values were obtained:
[1] = test system: greenhouse red spider mite (Tetranychus urticae), OP-resistant; experiment: Tetranychus urticae spray test, OP-resistant (TETRUR); type: in vivo; details: application rate 100 g/ha; bean leaf discs; after 6 days
Experimental: Tetranychus urticae—Spray Test, OP-Resistant (TETRUR)
(§1) Solvents: 78.0 parts by weight of acetone
(§2) • 1.5 parts by weight of dimethylformamide Emulsifier: alkylaryl polyglycol ether
(§3) To produce a suitable preparation of active compound, 1 part by weight of active compound is dissolved using the stated parts by weight of solvent and made up with water comprising an emulsifier concentration of 1000 ppm until the desired concentration is reached. To produce further test concentrations, the preparation is diluted with emulsifier-containing water.
Discs of bean leaves (Phaseolus vulgaris) which are infested by all stages of the greenhouse red spider mite (Tetranychus urticae) are sprayed with an active compound preparation of the desired concentration.
After 6 days, the efficacy in % is determined. 100% means that all of the spider mites have been killed; 0% means that none of the spider mites have been killed.

[2] = test system: caterpillars of the armyworm (Spodoptera frugiperda); experiment: Spodoptera frugiperda spray test (SPODFR); type: in vivo; details: application rate 100 g/ha; maize leaf discs; after 7 days
Experimental: Spodoptera frugiperda—Spray Test (SPODFR)
as §1, §2, §3
Leaf discs of maize (Zea mays) are sprayed with an active compound preparation of the desired concentration and, after drying, populated with caterpillars of the armyworm (Spodoptera frugiperda).
After 7 days, the efficacy in % is determined. 100% means that all of the caterpillars have been killed; 0% means that none of the caterpillars have been killed.

[3] = test system: green peach aphid (Myzus persicae); experiment: Myzus persicae spray test (MYZUPE); type: in vivo; details: application rate 100 g/ha; Chinese cabbage leaf discs; after 6 days
Experimental: Myzus persicae—spray test (MYZUPE)
Solvents: 78 parts by weight of acetone
as §2, §3
Discs of Chinese cabbage leaves (Brassica pekinensis) infested by all stages of the green peach aphid (Myzus persicae) are sprayed with an active compound preparation of the desired concentration.
After 6 days, the efficacy in % is determined. 100% here means that all of the aphids have been killed; 0% means that no aphids have been killed.

[4] = test system: larvae of the mustard beetle (Phaedon cochleariae); experiment: Phaedon cochleariae spray test (PHAECO); type: in vivo; details: application rate 100 g/ha; Chinese cabbage leaf discs; after 7 days
Experimental: Phaedon cochleariae—Spray Test (PHAECO)
as §1, §2, §3
After 7 days, the efficacy in % is determined. 100% means that all of the beetle larvae have been killed; 0% means that none of the beetle larvae have been killed.

[5] = test system: Tick nymphs (Amblyomma hebraeum); experiment: Amblyomma hebaraeum test (AMBYHE), tick nymph immersion; type: in vivo; details: application rate 100 ppm; immersion one minute; after 42 days
Experimental: Amblyomma hebaraeum Test (AMBYHE) Solvent: dimethyl sulphoxide To produce a suitable preparation of active compound, 10 mg of active compound are mixed with 0.5 ml of dimethyl sulphoxide, and the concentrate is diluted with water to the desired concentration. Tick nymphs (Amblyomma hebraeum) are placed into perforated plastic beakers and immersed in the desired concentration for one minute. The ticks are transferred on filter paper into a Petri dish and stored in a climate-controlled cabinet. After 42 days, the kill in % is determined. 100% means that all of the ticks have been killed; 0% means that none of the ticks have been killed.

[6] = test system: southern root-knot nematode (Meloidogyne incognita); experiment: Meloidogyne incognita test (MELGIN); type: in vivo; details: application rate 20 ppm; lettuce; after 14 days
Experimental: Meloidogyne incognita Test (MELGIN) Solvent: 125.0 parts by weight of acetone To prepare a suitable active compound preparation, 1 part by weight of active compound is mixed with the stated amount of solvent and the concentrate is diluted with water to the desired concentration. Vessels are filled with sand, active compound solution, an egg/larvae suspension of the southern root-knot nematode (Meloidogyne incognita) and lettuce seeds. The lettuce seeds germinate and the plants develop. On the roots, galls are formed. After 14 days, the nematicidal efficacy in % is determined by the formation of galls. 100% means that no galls have been found; 0% means that the number of galls on the treated plants corresponds to the untreated control.

[7] = test system: L1 larvae of the Australian sheep blowfly (Lucilia cuprina); experiment: Lucilia cuprina test (LUCICU); type: in vivo; details: application rate 100 ppm; minced horsemeat; after 2 days
Experimental: Lucilia cuprina Test (LUCICU) Solvent: dimethyl sulphoxide To produce a suitable preparation of active compound, 10 mg of active compound are mixed with 0.5 ml of dimethyl sulphoxide, and the concentrate is diluted with water to the desired concentration. About 20 L1 larvae of the Australian sheep blowfly (Lucilia cuprina) are transferred into a test vessel containing minced horsemeat and the active compound preparation of the desired concentration. After 2 days, the kill in % is determined. 100% means that all of the larvae have been killed; 0% means that none of the larvae have been killed.

[8] = test system: adult houseflies (Musca domestica); experiment: Musca domestica test (MUSCDO); type: in vivo; details: application rate 100 ppm; after 2 days
Experimental: Musca domestica Test (MUSCDO) Solvents: dimethyl sulphoxide To produce a suitable preparation of active compound, 10 mg of active compound are mixed with 0.5 ml of dimethyl sulphoxide, and the concentrate is diluted with water to the desired concentration. Vessels containing a sponge treated with sugar solution and the active compound preparation of the desired concentration are populated with 10 adult houseflies (Musca domestica). After 2 days, the kill in % is determined. 100% means that all of the flies have been killed; 0% means that none of the flies have been killed.

[9] = test system: adult cat fleas (Ctenocephalides felis); experiment: Ctenocephalides felis oral test (CTECFE); type: in vivo; details: application rate 100 ppm in citrated cattle blood; after 2 days
Experimental: Ctenocephalides felis-Oral Test ([…]) Solvent: dimethyl sulphoxide To produce a suitable preparation of active compound, 10 mg of active compound are mixed with 0.5 ml of dimethyl sulphoxide. Dilution with citrated cattle blood gives the desired concentration. About 20 unfed adult cat fleas (Ctenocephalides felis) are placed into a chamber which is closed at the top and bottom with gauze. A metal cylinder whose bottom end is closed with a parafilm is placed onto the chamber. The cylinder contains the blood/active ingredient preparation, which can be imbibed by the fleas through the parafilm membrane. After 2 days, the kill in % is determined. 100% means that all of the fleas have been killed; 0% means that none of the fleas have been killed.

[10] = test system: engorged adult female cattle ticks (Boophilus microplus); experiment: Boophilus microplus injection test (BOOPMI Inj); type: in vivo; details: application rate 20 μg/animal; injection into abdomen; assessed after 7 days
Experimental: Boophilus microplus Injection Test (BOOPMI Inj)
(§4) Solvent: dimethyl sulphoxide
To produce a suitable preparation of active compound, 10 mg of active compound are mixed with 0.5 ml of solvent, and the concentrate is diluted with solvent to the desired concentration.
1 μl of the active compound solution is injected into the abdomen of 5 engorged adult female cattle ticks (Boophilus microplus). The animals are transferred into dishes and kept in a climate-controlled room.
(§5) The activity is assessed after 7 days by laying of fertile eggs. Eggs whose fertility is not visible from the outside are stored in a climate-controlled cabinet until the larvae hatch after about 42 days. An efficacy of 100% means that none of the ticks has laid any fertile eggs; 0% means that all eggs are fertile.

[11] = log P determination by HPLC on reversed-phase column (C18), EEC Directive 79/831 Annex V.A8; type: physicochemical; details: method a): Agilent 1100 LC, Zorbax Eclipse Plus C18, acetonitrile/water with formic acid, gradient 10-95% in 4.25 min, 55° C.
Experimental: Agilent 1100 LC system; 50*4.6 Zorbax Eclipse Plus C18 1.8 micron; mobile phase A: acetonitrile (0.1% formic acid); mobile phase B: water (0.09% formic acid); linear gradient from 10% acetonitrile to 95% acetonitrile in 4.25 min, then 95% acetonitrile for a further 1.25 min; oven temperature 55° C.; flow rate: 2.0 ml/min. Mass detection is carried out via an Agilend MSD system.
^a)Unless indicated otherwise, the following method was used to determine the log P values and masses: The determination of the given log P values was carried out in accordance with EEC Directive 79/831 Annex V.A8 by HPLC (High Performance Liquid Chromatography) on a reversed-phase column (C18). Agilent 1100 LC system; 50*4.6 Zorbax Eclipse Plus C18 1.8 micron; mobile phase A: acetonitrile (0.1% formic acid); mobile phase B: water (0.09% formic acid); linear gradient from 10% acetonitrile to 95% acetonitrile in 4.25 min, then 95% acetonitrile for a further 1.25 min; oven temperature 55° C.; flow rate: 2.0 ml/min. Mass detection is carried out via an Agilend MSD system. ^b)Note for the alternative method for determining log P values and masses: The stated log P values were determined in accordance with EEC Directive 79/831 Annex V.A8 by HPLC (High Performance Liquid Chromatography) using a reversed-phase column (C18). Waters ACQUITY UPLC-MS system; 2.1*50 mm Zorbax Eclipse Plus C18 1.8 μm 600 bar; injection volume: 0.5 ul about 1000 ppm; mobile phase A: acetonitrile (0.1% formic acid); mobile phase B: water (0.085% formic acid); linear gradient from 10% acetonitrile to 95% acetonitrile in 1.5 min, then 95% acetonitrile for a further 0.5 min; oven temperature 60° C.; flow rate: 1.0 ml/min. Mass detection is carried out via a Waters SQD system.

[12] = test system: cattle ticks (Boophilus microplus) Parkhurst strain, SP-resistant; experiment: Boophilus microplus dip test (BOOPMI Dip); type: in vivo; details: application rate 100 ppm, assessed after 7 days
Experimental: Boophilus microplus—Dip Test (BOOPMI Dip)
Test animals: cattle ticks (Boophilus microplus) Parkhurst strain, SP-resistant
as §4
10 mg of active compound are dissolved in 0.5 ml of dimethyl sulphoxide. To prepare a suitable formulation, the active compound solution is diluted with water to the concentration desired in each case.
This active compound preparation is pipetted into tubes. 8-10 adult engorged female cattle ticks (Boophilus microplus) are transferred into a further tube with holes. The tube is immersed into the active compound formulation, and all ticks are completely wetted. After the liquid has run out, the ticks are transferred on filter discs into plastic dishes and stored in a climate-controlled room.
as §5

Row | Compound | efficacy in % [1] | efficacy in % [2] | efficacy in % [3] | efficacy in % [4] | kill in % [5] | nematicidal efficacy in % (formation of galls) [6] | kill in % [7] | kill in % [8] | kill in % [9] | efficacy (no laying of fertile eggs) [10] | chromatographic logP [11] | efficacy (no laying of fertile eggs) [12]
1 | CC(F)C(=O)NCc1cc(-c2cnn(-c3c(C(F)(F)F)c(C(F)(F)C(F)(F)F)nn3C)c2)ccc1F (racemic) [Ic-22] | 100% | 83% | 90% | 100% |  |  |  |  |  |  |  | 
2 | CCC(=O)NCc1cccc(-c2cnn(-c3c(C(F)(F)F)c(C(F)(F)C(F)(F)F)nn3C)c2)c1 [Ic-1, N-{3-[2′-methyl-5′-(pentafluoroethyl)-4′-(trifluoromethyl)-2′H-1,3′-bipyrazol-4-yl]benzyl}propanamide] | 90% | 100% |  | 100% | 100% | 90% | 100% | 100% | 100% | 100% | 3.59 | 100%
3 | Cn1nc(C(F)(F)C(F)(F)F)c(C(F)(F)F)c1-n1cc(-c2ccc(F)c(CNC(=O)Cc3cccs3)c2)cn1 [Ic-7] | 100% | 83% |  | 100% |  | 90% | 100% |  | 90% | 100% |  | 
4 | CC(=O)NCc1cncc(-c2cnn(-c3c(C(F)(F)F)c(C(F)(F)C(F)(F)F)nn3C)c2)c1 [Ic-8] | 90% |  | 90% | 100% |  |  |  |  |  |  |  | 
5 | Cn1nc(C(F)(F)C(F)(F)F)c(C(F)(F)F)c1-n1cc(-c2cccc(CNC(=O)OC(C)(C)C)c2)cn1 [Ic-18, tert-butyl {3-[2′-methyl-5′-(pentafluoroethyl)-4′-(trifluoromethyl)-2′H-1,3′-bipyrazol-4-yl]benzyl}carbamate] |  |  | 100% |  |  |  |  |  |  | 100% | 4.74 | 
6 | Cn1nc(C(F)(F)C(F)(F)F)c(C(F)(F)F)c1-n1cc(-c2ccc(F)c(CNC(=O)c3ccsc3)c2)cn1 [Ic-23] |  |  |  | 100% |  | 90% | 95% |  |  | 100% |  | 
7 | CCC(=O)NCc1cncc(-c2cnn(-c3c(C(F)(F)F)c(C(F)(F)C(F)(F)F)nn3C)c2)c1 [Ic-26] | 90% | 83% | 100% | 100% |  |  |  |  |  |  |  | 
8 | CCC(=O)NC(C)c1cccc(-c2cnn(-c3c(C(F)(F)F)c(C(F)(F)C(F)(F)F)nn3C)c2)c1 (stereo not shown) [Ic-33] | 100% |  | 90% | 100% |  |  |  |  |  |  |  | 
9 | CCC(=O)NCc1cccc(-c2ncn(-c3c(C(F)(F)F)c(C(F)(F)C(F)(F)F)nn3C)n2)c1 [Ie-1] |  |  |  |  |  | 90% |  |  |  |  |  | 
